Data taken from patent US9655980B2, “Theranostic platform for targeted cancer therapy and drug delivery monitoring” (University of Pittsburgh—Of the Commonwealth System of …, priority 2012, dated 2017).
“And” between values parts separate entries of the source, which are not always exact repeats. Identical values can stand only once.

How the values were obtained:
[1] = system: wild-type mouse malignant astrocytoma DBT (wt-DBT) cells; test: In vitro cytotoxicity, hemocytometer-based trypan blue dye exclusion; type: cell-based; conditions: for cell viability: 2×10^−7 and 1×10^−5 M, 48 h
Source text: FIG. 4 is a graph showing the results cell viability tests of QR-G1-COOH and QR-G2-COOH on the wt-DBT cell line. Values are presented as mean±standard deviation.
The in vitro cytotoxicity of QR-G1-COOH and QR-G2-COOH against wild-type mouse malignant astrocytoma DBT (wt-DBT) cells was investigated using a hemocytometer-based trypan blue dye exclusion method.

[2] = Photostability: NIR absorbance under ambient light; type: physicochemical; conditions: for decrease of absorbance after exposure to ambient light: 2 hours, absorption maximum wavelength; for NIR absorbance remaining: 31 days ambient light; for photostability compared with ICG: ambient light
Experimental: FIG. 3 is a graph showing the photostability of QR-G1-COOH, QR-G2-COOH and ICG in DMSO. Samples were exposed to the ambient light and the change of optical density at absorption maximum wavelength was monitored over time. All samples have the initial absorbance of about 1.2 at the absorption maximum wavelength. The signals were normalized against the values at 0 hour.
To evaluate the photostability of QR-G1-COOH and QR-G2-COOH, the NIR absorbance of these molecules exposed to ambient light was monitored and the results were compared with that of the FDA approved NIR dye, indocyanine green (ICG).

[3] = Solubility / hydrophilicity observations; type: physicochemical; conditions: for hydrophilicity: as sodium salts
Source text: The most challenging step encountered during the synthesis of QR-G1-COOH and QR-G2-COOH was the ring cyclization of biperylene 6. Many quaterrylenes reported were synthesized through a base-assisted cyclodehydrogenation reaction using molten KOH/glucose, tert-BuOK/DBN in diglyme, or K2CO3 in ethanolamine. However, these reaction systems are not applicable for the synthesis of quaterrylene 7 because of the high reactivity of aldehyde under the harsh basic conditions. Recently, Müllen's group reported milder conditions for the preparation of uaterrylenedicarboximides and rylenediimides by the Lewis acids FeCl3/CH3NO2 and AlCl3/chlorobenzene. […] The following reduction of aldehyde groups on 7 by NaBH4 yielded benzyl alcohol 8 with a relatively low yield (32%). Coupling quaterrylene 8 with dendrons 9 and 10 provided the dendrimers QR-G1-triester and QR-G2-triester in 35% and 28% yields after purification by column chromatography.

[4] = UV-vis absorption and emission spectra (photophysical properties); type: physicochemical
Source text: FIG. […]
Similar observations have been reported on extended perylenediimides. […] This fluorescence enhancement in pluronic compared to water can be explained by the disruption of the non-fluorescent dye aggregates by pluronic, which formed micelles with dye monomers inside. The strong absorption in the NIR region and weak emission may render QR-G1-COOH to a promising photoacoustic imaging agent.

[5] = as above; type: physicochemical; conditions: DMSO; for Fluorescence quantum yield Φ: ICG in methanol as standard

Structure (SMILES)	decrease of absorbance after exposure to ambient light ([2]; DMSO)	hydrophilicity [3]	absorbance change after illumination ([2]; DMSO, 3 days ambient light) [%]	NIR absorbance remaining ([2]; DMSO) [%]	photostability compared with ICG [2]	ε (molar extinction coefficient) ([4]; methanol)	λem ([4]; methanol, excited at 720 nm) [nm]	ε ([4]; water)	λabs ([4]; water) [nm]	λem [5] [nm]	Fluorescence quantum yield Φ [5] [%]	cytotoxicity to DBT cells [1]	cell viability ([1]; wt-DBT cells)	other results
C[S+](C)[O-] [DMSO, reference compound]	–	–	–	–	–	–	–	–	–	–	–	–	–	live cells (positive control group) ([1]; wt-DBT cells, 5% DMSO, after 48 h): 66.9%
CC1(C)C(/C=C/C=C/C=C/C=C2\N(CCCCS(=O)(=O)O)c3ccc4ccccc4c3C2(C)C)=[N+](CCCCS(=O)(=O)[O-])c2ccc3ccccc3c21 [ICG, indocyanine green, reference compound]	48%	–	–	–	–	–	–	–	–	–	–	–	–	absorbance observed after illumination ([2]; DMSO, 3 days ambient light): no significant absorbance
CC(C)c1cccc(C(C)C)c1N1C(=O)c2cc(Oc3ccc(COC(=O)CCC(=O)NC(CCC(=O)O)(CCC(=O)O)CCC(=O)O)cc3)c3c4ccc5c6ccc7c8c(Oc9ccc(COC(=O)CCC(=O)NC(CCC(=O)O)(CCC(=O)O)CCC(=O)O)cc9)cc9c%10c(cc(Oc%11ccc(COC(=O)CCC(=O)NC(CCC(=O)O)(CCC(=O)O)CCC(=O)O)cc%11)c(c%11ccc(c%12ccc(c%13c(Oc%14ccc(COC(=O)CCC(=O)NC(CCC(=O)O)(CCC(=O)O)CCC(=O)O)cc%14)cc(c2c3%13)C1=O)c4c5%12)c6c7%11)c%108)C(=O)N(c1c(C(C)C)cccc1C(C)C)C9=O [QR-G1-COOH]	no significant absorbance change	high hydrophilicity	1	85	dramatically more photostable than ICG	146000 M⁻¹ cm⁻¹ and 143000 M⁻¹ cm⁻¹	813	0.74 10^5 M^−1 cm^−1	739	816	0.11	low cytotoxicity	about 90%	fluorescence in pluronic compared to water ([4]; 0.4% wt/wt of pluronic): large fluorescence enhancement; λabs ([4]; methanol): 771 nm and 728 nm; λem ([4]; water, pluronic ~0.4 wt %/wt): 807 nm; fluorescence in water ([4]; water, excited at 720 nm): nearly no fluorescence
CC(C)c1cccc(C(C)C)c1N1C(=O)c2cc(Oc3ccc(COC(=O)CCC(=O)NC(CCC(=O)OC(C)(C)C)(CCC(=O)OC(C)(C)C)CCC(=O)OC(C)(C)C)cc3)c3c4ccc5c6ccc7c8c(Oc9ccc(COC(=O)CCC(=O)NC(CCC(=O)OC(C)(C)C)(CCC(=O)OC(C)(C)C)CCC(=O)OC(C)(C)C)cc9)cc9c%10c(cc(Oc%11ccc(COC(=O)CCC(=O)NC(CCC(=O)OC(C)(C)C)(CCC(=O)OC(C)(C)C)CCC(=O)OC(C)(C)C)cc%11)c(c%11ccc(c%12ccc(c%13c(Oc%14ccc(COC(=O)CCC(=O)NC(CCC(=O)OC(C)(C)C)(CCC(=O)OC(C)(C)C)CCC(=O)OC(C)(C)C)cc%14)cc(c2c3%13)C1=O)c4c5%12)c6c7%11)c%108)C(=O)N(c1c(C(C)C)cccc1C(C)C)C9=O [QR-G1-triester]	–	–	–	–	–	–	–	–	–	–	–	–	–	solubility in organic solvents ([3]; toluene, dichloromethane, chloroform, ethyl acetate, methanol): highly soluble
CC(C)c1cccc(C(C)C)c1N1C(=O)c2cc(Oc3ccc(COC(=O)CCC(=O)NC(CCC(=O)NC(CCC(=O)O)(CCC(=O)O)CCC(=O)O)(CCC(=O)NC(CCC(=O)O)(CCC(=O)O)CCC(=O)O)CCC(=O)NC(CCC(=O)O)(CCC(=O)O)CCC(=O)O)cc3)c3c4ccc5c6ccc7c8c(Oc9ccc(COC(=O)CCC(=O)NC(CCC(=O)NC(CCC(=O)O)(CCC(=O)O)CCC(=O)O)(CCC(=O)NC(CCC(=O)O)(CCC(=O)O)CCC(=O)O)CCC(=O)NC(CCC(=O)O)(CCC(=O)O)CCC(=O)O)cc9)cc9c%10c(cc(Oc%11ccc(COC(=O)CCC(=O)NC(CCC(=O)NC(CCC(=O)O)(CCC(=O)O)CCC(=O)O)(CCC(=O)NC(CCC(=O)O)(CCC(=O)O)CCC(=O)O)CCC(=O)NC(CCC(=O)O)(CCC(=O)O)CCC(=O)O)cc%11)c(c%11ccc(c%12ccc(c%13c(Oc%14ccc(COC(=O)CCC(=O)NC(CCC(=O)NC(CCC(=O)O)(CCC(=O)O)CCC(=O)O)(CCC(=O)NC(CCC(=O)O)(CCC(=O)O)CCC(=O)O)CCC(=O)NC(CCC(=O)O)(CCC(=O)O)CCC(=O)O)cc%14)cc(c2c3%13)C1=O)c4c5%12)c6c7%11)c%108)C(=O)N(c1c(C(C)C)cccc1C(C)C)C9=O [QR-G2-COOH]	no significant absorbance change	high hydrophilicity	3	77	dramatically more photostable than ICG	121000 M⁻¹ cm⁻¹	815	0.56 10^5 M^−1 cm^−1	743	816	0.32	low cytotoxicity	about 90%	quantum yield relative to QR-G1-COOH ([4]; Table 1): roughly two times higher; ε ([4]; methanol, values in order of the listed absorption bands): 1.21 10^5 M^−1 cm^−1; λem ([4]; water, pluronic ~10 wt %/wt): 809 nm
